Assay results reported in US20240124444A1 (Celgene Corporation, priority 2020, published 2024).
Like-named read-outs stand apart in the source and are kept apart here.

Tested on: C. parvum strain UGA1
Experiment: C. parvum growth inhibition assay (Nluc luminescence in HCT-8 cells)
Type: cell-based, Cryptosporidium parvum
Conditions: for inhibition at 1 µM / inhibition at 10 µM: HCT-8; for inhibition at 1 µM: read-out: % inh @ 1 uM C. parvum; for inhibition at 10 µM: read-out: % inh @ 10 uM C. parvum; for EC50: C. parvum growth inhibition in HCT-8 cells, 48 hours, 6 concentrations 10-0.04 μM
[1] = Cryptosporidium parvum, single point inhibition at 1 uM
[2] = Cryptosporidium parvum, single point inhibition at 10 uM
[3] = Cryptosporidium parvum, single point inhibition @ 1 uM
[4] = Cryptosporidium parvum, single point inhibition @ 10 uM
[5] = Cryptosporidium parvum, HCT-8, 48 h

Structure (SMILES) | inhibition at 1 µM [1] [%] | inhibition at 10 µM [2] [%] | EC50 [5] [µM] | further results
Cc1cc(-c2cc3cnc(NC(=O)C45CC(C4)C5)cc3[nH]2)ccn1 [Example 298, N-(2-(2-methylpyridin-4-yl)-1H-pyrrolo[3,2-c]pyridin-6-yl)bicyclo[1.1.1]pentane-1-carboxamide] | 0 to 33 | 0 to 33 |  | 
N#Cc1cc2cnc(Nc3cnn(C4CCOCC4)c3)cc2[nH]1 [Example 151, 6-(1-(tetrahydro-2H-pyran-4-yl)-1H-pyrazol-4-ylamino)-1H-pyrrolo[3,2-c]pyridine-2-carbonitrile] |  |  |  | inhibition at 1 µM [3]: 0 to 33%; inhibition at 10 µM [4]: 67 to 100%
O=C(Nc1cc2[nH]c(-c3nc[nH]n3)cc2cn1)C1CC1 [Example 201, N-(2-(1H-1,2,4-triazol-3-yl)-1H-pyrrolo[3,2-c]pyridin-6-yl)cyclopropanecarboxamide] | 0 to 33 | 67 to 100 |  | 
O=C(Nc1cc2[nH]c(-c3ccncc3)cc2cn1)c1cnn(C2CCOCC2)c1 [Example 154, N-(2-(pyridin-4-yl)-1H-pyrrolo[3,2-c]pyridin-6-yl)-1-(tetrahydro-2H-pyran-4-yl)-1H-pyrazole-4-carboxamide] |  |  |  | inhibition at 1 µM [3]: 0 to 33%; inhibition at 10 µM [4]: 67 to 100%
Cc1cc(-c2cc3cnc(NC(=O)c4c(C)noc4C)cc3[nH]2)ccn1 [Example 221, 3,5-dimethyl-N-(2-(2-methylpyridin-4-yl)-1H-pyrrolo[3,2-c]pyridin-6-yl)isoxazole-4-carboxamide] | 0 to 33 | 33 to 66 |  | 
CNc1cc2c(cn1)cc(-c1ccnc(NCC(F)(F)F)n1)n2C [Example 390, N,1-dimethyl-2-(2-(2,2,2-trifluoroethylamino)pyrimidin-4-yl)-1H-pyrrolo[3,2-c]pyridin-6-amine] |  |  | > 1 | 
CCOc1nccc(-c2cc3cnc(NC(=O)c4cccc5cn[nH]c45)cc3[nH]2)n1 [Example 243, N-(2-(2-ethoxypyrimidin-4-yl)-1H-pyrrolo[3,2-c]pyridin-6-yl)-1H-indazole-7-carboxamide] | 0 to 33 | 0 to 33 |  | 
COc1nccc(-c2cc3cnc(NC(=O)C4CC4)cc3n2CCO)n1 [Example 343, N-(1-(2-hydroxyethyl)-2-(2-methoxypyrimidin-4-yl)-1H-pyrrolo[3,2-c]pyridin-6-yl)cyclopropanecarboxamide] |  |  | > 1 | 
CCOc1nccc(-c2cc3cnc(NC(=O)c4cnn(C)c4)cc3n2CC(C)C)n1 [Example 316, N-(2-(2-ethoxypyrimidin-4-yl)-1-isobutyl-1H-pyrrolo[3,2-c]pyridin-6-yl)-1-methyl-1H-pyrazole-4-carboxamide] | 0 to 33 | 0 to 33 |  | 
Cc1cc(-c2cc3cnc(N[C@@H]4CCOC4)cc3[nH]2)ccn1 [Example 13, (R)-2-(2-Methylpyridin-4-yl)-N-(tetrahydrofuran-3-yl)-1H-pyrrolo[3,2-c]pyridin-6-amine] |  |  |  | EC50: 0.5 to 1 µM; inhibition at 1 µM [3]: 33 to 66%; inhibition at 10 µM [4]: 67 to 100%
CC(C)n1cc(C(=O)Nc2cc3c(cn2)cc(-c2ccnc(NCCC(F)(F)F)n2)n3C)cn1 [Example 178, 1-isopropyl-N-(1-methyl-2-(2-(3,3,3-trifluoropropylamino)pyrimidin-4-yl)-1H-pyrrolo[3,2-c]pyridin-6-yl)-1H-pyrazole-4-carboxamide] |  |  |  | inhibition at 1 µM [3]: 0 to 33%; inhibition at 10 µM [4]: 67 to 100%
Cn1cc(C(=O)Nc2cc3[nH]c(C#N)cc3cn2)cn1 [Example 280, N-(2-cyano-1H-pyrrolo[3,2-c]pyridin-6-yl)-1-methyl-1H-pyrazole-4-carboxamide] | 0 to 33 | 0 to 33 |  | 
Cc1cc(-c2cc3cnc(NC4CCCOC4)cc3[nH]2)ccn1 (stereo in doubt) [Example 355, (S)-2-(2-methylpyridin-4-yl)-N-(tetrahydro-2H-pyran-3-yl)-1H-pyrrolo[3,2-c]pyridin-6-amine] |  |  | > 1 | 
Cc1cc(-c2cc3cnc(NC(=O)c4cnn(C)c4)cc3[nH]2)ccn1 [Example 224, 1-methyl-N-(2-(2-methylpyridin-4-yl)-1H-pyrrolo[3,2-c]pyridin-6-yl)-1H-pyrazole-4-carboxamide] | 0 to 33 | 33 to 66 |  | 
Cn1cc(C(=O)Nc2cc3[nH]c(-c4ccc(F)cn4)cc3cn2)cn1 [Example 334, N-(2-(5-fluoropyridin-2-yl)-1H-pyrrolo[3,2-c]pyridin-6-yl)-1-methyl-1H-pyrazole-4-carboxamide] | 0 to 33 | 0 to 33 |  | 
Cc1cc(-c2cc3cnc(NC(=O)C4CC4)cc3[nH]2)ccc1F [Example 340, N-(2-(4-fluoro-3-methylphenyl)-1H-pyrrolo[3,2-c]pyridin-6-yl)cyclopropanecarboxamide] | 0 to 33 | 0 to 33 |  | 
Cc1cc(-c2cc3cnc(NC(=O)C4CCCOC4)cc3[nH]2)ccn1 (stereo not drawn) [Example 155, N-(2-(2-methylpyridin-4-yl)-1H-pyrrolo[3,2-c]pyridin-6-yl)tetrahydro-2H-pyran-3-carboxamide] |  |  |  | inhibition at 1 µM [3]: 0 to 33%; inhibition at 10 µM [4]: 67 to 100%

Structure (SMILES) | inhibition at 1 µM [1] [%] | inhibition at 10 µM [2] [%] | EC50 [5] [µM] | further results
Cn1cnc(-c2cc3cnc(NC4CCOCC4)cc3[nH]2)c1 [Example 123, 2-(1-methyl-1H-imidazol-4-yl)-N-(tetrahydro-2H-pyran-4-yl)-1H-pyrrolo[3,2-c]pyridin-6-amine] |  |  | > 1 | 
Cc1nccc(-c2cc3cnc(NC(=O)C4CC4)cc3n2C)n1 [Example 100, N-(1-methyl-2-(2-methylpyrimidin-4-yl)-1H-pyrrolo[3,2-c]pyridin-6-yl)cyclopropanecarboxamide] |  |  | > 1 | 
CC(C)n1cc(C(=O)Nc2cc3c(cn2)cc(-c2ccnc(NC4CC4)n2)n3C)cn1 [Example 132, N-(2-(2-(cyclopropylamino)pyrimidin-4-yl)-1-methyl-1H-pyrrolo[3,2-c]pyridin-6-yl)-1-isopropyl-1H-pyrazole-4-carboxamide] |  |  |  | inhibition at 1 µM [3]: 0 to 33%; inhibition at 10 µM [4]: 67 to 100%
O=C(Nc1cc2[nH]c(C(F)(F)F)cc2cn1)C1CCCC1 [Example 111, N-(2-(trifluoromethyl)-1H-pyrrolo[3,2-c]pyridin-6-yl)cyclopentanecarboxamide] |  |  | > 1 | 
Cc1cc(-c2cc3cnc(NC(=O)c4cnn(C5CCCC5)c4)cc3[nH]2)ccn1 [Example 84, 1-cyclopentyl-N-(2-(2-methylpyridin-4-yl)-1H-pyrrolo[3,2-c]pyridin-6-yl)-1H-pyrazole-4-carboxamide] |  |  | > 1 | inhibition at 1 µM [3]: 67 to 100%; inhibition at 10 µM [4]: 0 to 33%
Cc1cc(-c2cc3cnc(NC4CCOCC4)cc3n2C)ccn1 [Example 59, 1-methyl-2-(2-methylpyridin-4-yl)-N-(tetrahydro-2H-pyran-4-yl)-1H-pyrrolo[3,2-c]pyridin-6-amine] |  |  | > 1 | 
Cc1c(C(=O)Nc2cc3[nH]c(-c4ccncc4)cc3cn2)cnn1C [Example 166, 1,5-dimethyl-N-(2-(pyridin-4-yl)-1H-pyrrolo[3,2-c]pyridin-6-yl)-1H-pyrazole-4-carboxamide] |  |  |  | inhibition at 1 µM [3]: 0 to 33%; inhibition at 10 µM [4]: 67 to 100%
Cc1cc(-c2cc3cnc(NC(=O)c4cc(C(F)(F)F)n(C)n4)cc3[nH]2)ccn1 [Example 294, 1-methyl-N-(2-(2-methylpyridin-4-yl)-1H-pyrrolo[3,2-c]pyridin-6-yl)-5-(trifluoromethyl)-1H-pyrazole-3-carboxamide] | 0 to 33 | 0 to 33 |  | 
Cn1c(-c2ccnc(NCC(F)(F)F)n2)cc2cnc(NC3CCCOC3)cc21 (stereo in doubt) [Example 379, (S)-1-methyl-N-(tetrahydro-2H-pyran-3-yl)-2-(2-(2,2,2-trifluoroethylamino)pyrimidin-4-yl)-1H-pyrrolo[3,2-c]pyridin-6-amine] |  |  | > 1 | 
COc1cc(-c2cc3cnc(NC4CCOCC4)cc3n2C)ncn1 [Example 388, 2-(6-methoxypyrimidin-4-yl)-1-methyl-N-(tetrahydro-2H-pyran-4-yl)-1H-pyrrolo[3,2-c]pyridin-6-amine] |  |  | > 1 | 
Cn1cc(C(=O)Nc2cc3[nH]c(-c4cnc(C#N)cn4)cc3cn2)cn1 [Example 303, N-(2-(5-cyanopyrazin-2-yl)-1H-pyrrolo[3,2-c]pyridin-6-yl)-1-methyl-1H-pyrazole-4-carboxamide] | 0 to 33 | 0 to 33 |  | 
O=C(Nc1cc2[nH]c(-c3cnc(C(F)(F)F)o3)cc2cn1)C1CC1 [Example 110, N-(2-(2-(trifluoromethyl)oxazol-5-yl)-1H-pyrrolo[3,2-c]pyridin-6-yl)cyclopropanecarboxamide] |  |  | > 1 | 
CN(CC(F)(F)F)c1cc(-c2cc3cnc(NC4CCOCC4)cc3[nH]2)ccn1 [Example 381, 2-(2-(methyl(2,2,2-trifluoroethyl)amino)pyridin-4-yl)-N-(tetrahydro-2H-pyran-4-yl)-1H-pyrrolo[3,2-c]pyridin-6-amine] |  |  | > 1 | 
COc1nccc(-c2cc3cnc(NC(=O)CC4COC4)cc3n2C)n1 [Example 87, N-(2-(2-methoxypyrimidin-4-yl)-1-methyl-1H-pyrrolo[3,2-c]pyridin-6-yl)-2-(oxetan-3-yl)acetamide] |  |  | > 1 | inhibition at 1 µM [3]: 33 to 66%; inhibition at 10 µM [4]: 0 to 33%
Cn1cnc(-c2cc3cnc(NC4CCOCC4)cc3n2C)c1 [Example 348, 1-methyl-2-(1-methyl-1H-imidazol-4-yl)-N-(tetrahydro-2H-pyran-4-yl)-1H-pyrrolo[3,2-c]pyridin-6-amine] |  |  | > 1 | 
Cn1cc(C(=O)Nc2cc3c(cn2)cc(-c2ccnc(C(F)(F)F)n2)n3C)cn1 [Example 200, 1-methyl-N-(1-methyl-2-(2-(trifluoromethyl)pyrimidin-4-yl)-1H-pyrrolo[3,2-c]pyridin-6-yl)-1H-pyrazole-4-carboxamide] | 33 to 66 | 67 to 100 |  | 
